These results are taken from patent US20260022143A1, “Cyclic Peptide Inhibitors of IL-23” (JANSSEN PHARMACEUTICA NV, priority 2022, published 2026).

Counter-ions that a name gives are not always drawn. Positions of bridges follow the written chain, without caps; N, C: chain ends. Non-standard residues stand in square brackets, D forms with d. Residues, ends and D or L forms follow the SMILES beside them. *: point of attachment. Trp(7-(3-AcNH-Ph)) = CC(=O)Nc1cccc(-c2cccc3c(C[C@H](N)C(=O)O)c[nH]c23)c1; Me3N+(CH2)2O(CH2)2O(CH2)2CO = C[N+](C)(C)CCOCCOCCC(=O)*; Trp(7-Me) = Cc1cccc2c(C[C@H](N)C(=O)O)c[nH]c12; Hexanoyl(6-NMe3+) = C[N+](C)(C)CCCCCC(=O)*; X30 = C[N+](C)(C)CCOCCOCCOCCOCc1cn(CC*)nn1; dLys(Me3) = C[N+](C)(C)CCCC[C@@H](N)C(=O)O; 3Pal(5-Me) = Cc1cncc(C[C@H](N)C(=O)O)c1; X9 = COCCOCCOCC[N+](C)(C)CCc1cn(CC*)nn1; 2Nal = N[C@@H](Cc1ccc2ccccc2c1)C(=O)O; X81 = C[N+](C)(CCCC*)CC[N+]1(C)CCOCC1; AEF = NCCOc1ccc(C[C@H](N)C(=O)O)cc1; X19 = C[N+](C)(C)C[C@@H](CC(=O)O)N*; 3Pal = N[C@@H](Cc1cccnc1)C(=O)O; Lys(Me) = CNCCCC[C@H](N)C(=O)O; X90 = COCCOCCOCC[N+](C)(C)CC*; Pen = CC(C)(S)[C@H](N)C(=O)O; X4 = COCCOCCCN(CCCOCCOC)CC*; Thp = NC1(C(=O)O)CCOCC1; Dap = NC[C@H](N)C(=O)O; Me2NCH2CH2 = CN(C)CC*; Tfa = O=C(C(F)(F)F)*; Sar = CNCC(=O)O

This series in a line: Exposed Polar Surface Area (EPSA). The format is physicochemical. Particulars: SFC on Chirex 3014 column; sample 1 mM DMSO stock; read-out: EPSA. The method, boiled down: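 Retention-based polarity: supercritical CO2 with 20 mM ammonium formate in MeOH (5–60%, 20%/min), Chirex 3014 column, 35 °C. Calibrated against 8 standards to give EPSA (Å^2); each sample measured twice.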
As for `CC(=O)NCCCC[C@@H]1NC(=O)[C@H](Cc2c[nH]c3c(-c4cccc(NC(C)=O)c4)cccc23)NC(=O)[C@H]([C@@H](C)O)NC(=O)[C@H](CC(N)=O)NC(=O)[C@@H](NC(=O)[C@@H](CCCC[N+](C)(C)C)NC(C)=O)C(C)(C)SSC(C)(C)[C@@H](C(=O)N[C@@H](Cc2ccc(OCCN)cc2)C(=O)N[C@@H](Cc2ccc3ccccc3c2)C(=O)NC2(C(=O)N[C@@H](CCC(=O)O)C(=O)N[C@@H](CC(N)=O)C(=O)N[C@@H](Cc3cncc(C)c3)C(=O)N(C)CC(N)=O)CCOCC2)NC1=O` [compound 535, MeCO-k(Me)3-Pen(3)-N-T-7(3NAcPh)W-K(Ac)-Pen(3)-AEF-2Nal-THP-E-N-5MePyridinAla-Sar-CONH2] (Ac-[dLys(Me3)][Pen]NT[Trp(7-(3-AcNH-Ph))]K(Ac)[Pen][AEF][2Nal][Thp]EN[3Pal(5-Me)][Sar]-NH2; disulfide 2-7), the EPSA was found to be 190 A^2. With `CNC(=O)C[C@H](NC(=O)[C@H](CCCCNC(C)=O)NC(=O)C1(NC(=O)[C@H](Cc2ccc3ccccc3c2)NC(=O)[C@H](Cc2ccc(OCCN)cc2)NC(=O)[C@H]2NC(=O)[C@H](CCCCNC(C)=O)NC(=O)[C@H](Cc3c[nH]c4c(C)cccc34)NC(=O)[C@H]([C@@H](C)O)NC(=O)[C@H](CC(N)=O)NC(=O)[C@@H](NC(C)=O)C(C)(C)SSC2(C)C)CCOCC1)C(=O)N[C@@H](Cc1cccnc1)C(=O)N(C)CC(N)=O` [compound 48] (Ac-[Pen]NT[Trp(7-Me)]K(Ac)[Pen][AEF][2Nal][Thp]K(Ac)D(NHMe)[3Pal][Sar]-NH2; disulfide 1-6), the EPSA stood at 184 A^2. Take `CC(=O)N(C)CCCC[C@H](NC(=O)C1(NC(=O)[C@H](Cc2ccc3ccccc3c2)NC(=O)[C@H](Cc2ccc(OCCCCC[N+](C)(C)C)cc2)NC(=O)[C@H]2NC(=O)[C@H](COCCOCC[N+](C)(C)C)NC(=O)[C@H](Cc3c[nH]c4c(C)cccc34)NC(=O)[C@H]([C@@H](C)O)NC(=O)[C@H](CC(=O)N(C)C)NC(=O)[C@@H](NC(=O)CCOCCOCC[N+](C)(C)C)C(C)(C)SSC2(C)C)CCOCC1)C(=O)N[C@@H](CC(N)=O)C(=O)N[C@@H](Cc1cccnc1)C(=O)N(C)CC(=O)N(C)C` (relative stereo) [compound 247, cPEG3aCO-Pen(3)-N(N(Me)2)-T-7MeW-APEG2Ser(S*)-Pen(3)-TMAPF-2Nal-THP-K(NMeAc)-N-3Pya-Sar-CON(Me)2]: the EPSA was 145 A^2. As for `COCCOCCOCC[N+](C)(C)CCOc1ccc(C[C@H](NC(=O)[C@H]2NC(=O)[C@H](CCCCN(C)C(C)=O)NC(=O)[C@H](Cc3c[nH]c4c(C)cccc34)NC(=O)[C@H]([C@@H](C)O)NC(=O)[C@H](CC(=O)N(C)C)NC(=O)[C@@H](NC(=O)CCOCCOCC[N+](C)(C)C)C(C)(C)SSC2(C)C)C(=O)N[C@@H](Cc2ccc3ccccc3c2)C(=O)NC2(C(=O)N[C@@H](CCCCN(C)C(C)=O)C(=O)N[C@@H](CC(N)=O)C(=O)N[C@@H](Cc3cccnc3)C(=O)N(C)CC(=O)N(C)C)CCOCC2)cc1` [compound 239, cPEG3aCO-Pen(3)-N(N(Me)2)-T-7MeW-K(NMeAc)-pen(3)-AEF(NMe2mPEG3)-2Nal-THP-K(NMeAc)-N-3Pya-Sar-CON(Me)2] ({Me3N+(CH2)2O(CH2)2O(CH2)2CO}-[Pen]D(NMe2)T[Trp(7-Me)][Lys(Me)](Ac)[Pen]Y(X90)[2Nal][Thp][Lys(Me)](Ac)N[3Pal][Sar]-NMe2; disulfide 1-6), the EPSA was 138 A^2. Next, `CC(=O)NCCCC[C@@H]1NC(=O)[C@H](Cc2c[nH]c3c(C)cccc23)NC(=O)[C@H]([C@@H](C)O)NC(=O)[C@H](CC(N)=O)NC(=O)[C@@H](NC(=O)C(F)(F)F)C(C)(C)SSC(C)(C)[C@@H](C(=O)N[C@@H](Cc2ccc(OCCN)cc2)C(=O)N[C@@H](Cc2ccc3ccccc3c2)C(=O)NC2(C(=O)N[C@@H](CCCCNC(C)=O)C(=O)N[C@@H](CC(N)=O)C(=O)N[C@@H](Cc3cccnc3)C(=O)N(C)CC(=O)N(C)C)CCOCC2)NC1=O` [compound 74] (Tfa-[Pen]NT[Trp(7-Me)]K(Ac)[Pen][AEF][2Nal][Thp]K(Ac)N[3Pal][Sar]-NMe2; disulfide 1-6 (inferred)): 154 A^2; `COCCOCCCN(CCCOCCOC)CCOc1ccc(C[C@H](NC(=O)[C@H]2NC(=O)[C@H](CCCCNC(C)=O)NC(=O)[C@H](Cc3c[nH]c4c(C)cccc34)NC(=O)[C@H]([C@@H](C)O)NC(=O)[C@H](CC(N)=O)NC(=O)[C@@H](NC(=O)CCCCC[N+](C)(C)C)C(C)(C)SSC2(C)C)C(=O)N[C@@H](Cc2ccc3ccccc3c2)C(=O)NC2(C(=O)N[C@@H](CNC(C)=O)C(=O)N[C@@H](CC(N)=O)C(=O)N[C@@H](Cc3cccnc3)C(=O)N(C)CC(N)=O)CCOCC2)cc1` [compound 205] ({Hexanoyl(6-NMe3+)}-[Pen]NT[Trp(7-Me)]K(Ac)[Pen]Y(X4)[2Nal][Thp][Dap](Ac)N[3Pal][Sar]-NH2; disulfide 1-6): 149 A^2; `Cc1cccc2c(C[C@@H]3NC(=O)[C@H]([C@@H](C)O)NC(=O)[C@H](CC(=O)N(C)C)NC(=O)[C@@H](NC(=O)CCOCCOCC[N+](C)(C)C)C(C)(C)SSC(C)(C)[C@@H](C(=O)N[C@@H](Cc4ccc(OCCN(C)C)cc4)C(=O)N[C@@H](Cc4ccc5ccccc5c4)C(=O)NC4(C(=O)N[C@@H](CCC(=O)N(C)C)C(=O)N[C@@H](CC(N)=O)C(=O)N[C@@H](Cc5cccnc5)C(=O)N(C)CC(=O)N(C)C)CCOCC4)NC(=O)[C@H](CCC(=O)N(C)C)NC3=O)c[nH]c12` [compound 154, cPEG3aCO-Pen(3)-N(N(Me)2)-T-7MeW-Q(N(Me)2)-Pen(3)-AEF(N(Me)2)-2Nal-THP-Q(N(Me)2)-N-3Pya-Sar-CON(Me)2] ({Me3N+(CH2)2O(CH2)2O(CH2)2CO}-[Pen]D(NMe2)T[Trp(7-Me)]E(NMe2)[Pen]Y(Me2NCH2CH2)[2Nal][Thp]E(NMe2)N[3Pal][Sar]-NMe2; disulfide 1-6): 144 A^2. For the compound `CC(=O)N(C)CCCC[C@@H]1NC(=O)[C@H](Cc2c[nH]c3c(C)cccc23)NC(=O)[C@H]([C@@H](C)O)NC(=O)[C@H](CC(=O)N(C)C)NC(=O)[C@@H](NC(=O)CCOCCOCC[N+](C)(C)C)C(C)(C)SSC(C)(C)[C@@H](C(=O)N[C@@H](Cc2ccc(OCCCC[N+](C)(C)CC[N+]3(C)CCOCC3)cc2)C(=O)N[C@@H](Cc2ccc3ccccc3c2)C(=O)NC2(C(=O)N[C@@H](CCCCN(C)C(C)=O)C(=O)N[C@@H](CC(N)=O)C(=O)N[C@@H](Cc3cccnc3)C(=O)N(C)CC(=O)N(C)C)CCOCC2)NC1=O` [compound 271, cPEG3aCO-Pen(3)-N(N(Me)2)-T-7MeW-K(NMeAc)-Pen(3)-morfTMA4F-2Nal-THP-K(NMeAc)-N-3Pya-Sar-CON(Me)2] ({Me3N+(CH2)2O(CH2)2O(CH2)2CO}-[Pen]D(NMe2)T[Trp(7-Me)][Lys(Me)](Ac)[Pen]Y(X81)[2Nal][Thp][Lys(Me)](Ac)N[3Pal][Sar]-NMe2; disulfide 1-6), the EPSA is 159 A^2.

On to `CC(=O)NCCCC[C@@H]1NC(=O)[C@H](Cc2c[nH]c3c(C)cccc23)NC(=O)[C@H]([C@@H](C)O)NC(=O)[C@H](CC(N)=O)NC(=O)[C@@H](NC(C)=O)C(C)(C)SSC(C)(C)[C@@H](C(=O)N[C@@H](Cc2ccc(OCCN)cc2)C(=O)N[C@@H](Cc2ccc3ccccc3c2)C(=O)NC2(C(=O)N[C@@H](CCC(=O)N[C@H](CC(=O)O)C[N+](C)(C)C)C(=O)N[C@@H](CC(N)=O)C(=O)N[C@@H](Cc3cccnc3)C(=O)N(C)CC(N)=O)CCOCC2)NC1=O` [compound 127] (Ac-[Pen]NT[Trp(7-Me)]K(Ac)[Pen][AEF][2Nal][Thp]E(X19)N[3Pal][Sar]-NH2; disulfide 1-6), for which the EPSA came out at 179 A^2. Take `COCCOCCOCC[N+](C)(C)CCc1cn(CCOc2ccc(C[C@H](NC(=O)[C@H]3NC(=O)[C@H](CCCCN(C)C(C)=O)NC(=O)[C@H](Cc4c[nH]c5c(C)cccc45)NC(=O)[C@H]([C@@H](C)O)NC(=O)[C@H](CC(=O)N(C)C)NC(=O)[C@@H](NC(=O)CCOCCOCC[N+](C)(C)C)C(C)(C)SSC3(C)C)C(=O)N[C@@H](Cc3ccc4ccccc4c3)C(=O)NC3(C(=O)N[C@@H](CCCCN(C)C(C)=O)C(=O)N[C@@H](CC(N)=O)C(=O)N[C@@H](Cc4cccnc4)C(=O)N(C)CC(=O)N(C)C)CCOCC3)cc2)nn1` [compound 283, cPEG3aCO-Pen(3)-N(N(Me)2)-T-7MeW-K(NMeAc)-Pen(3)-Y(OTzlChmPEG3)-2Nal-THP-K(NMeAc)-N-3Pya-Sar-CON(Me)2] ({Me3N+(CH2)2O(CH2)2O(CH2)2CO}-[Pen]D(NMe2)T[Trp(7-Me)][Lys(Me)](Ac)[Pen]Y(X9)[2Nal][Thp][Lys(Me)](Ac)N[3Pal][Sar]-NMe2; disulfide 1-6): the EPSA is 146 A^2.

As to `CC(=O)N(C)CCCC[C@@H]1NC(=O)[C@H](Cc2c[nH]c3c(C)cccc23)NC(=O)[C@H]([C@@H](C)O)NC(=O)[C@H](CC(=O)N(C)C)NC(=O)[C@@H](NC(=O)CCOCCOCC[N+](C)(C)C)C(C)(C)SSC(C)(C)[C@@H](C(=O)N[C@@H](Cc2ccc(OCCN)cc2)C(=O)N[C@@H](Cc2ccc3ccccc3c2)C(=O)NC2(C(=O)N[C@@H](CCCCN(C)C(C)=O)C(=O)N[C@@H](CC(N)=O)C(=O)N[C@@H](Cc3cccnc3)C(=O)N(C)CC(N)=O)CCOCC2)NC1=O` [compound 169, cPEG3aCO-Pen(3)-N(N(Me)2)-T-7MeW-K(NMeAc)-Pen(3)-AEF-2Nal-THP-K(NMeAc)-N-3Pya-Sar-CONH2] ({Me3N+(CH2)2O(CH2)2O(CH2)2CO}-[Pen]D(NMe2)T[Trp(7-Me)][Lys(Me)](Ac)[Pen][AEF][2Nal][Thp][Lys(Me)](Ac)N[3Pal][Sar]-NH2; disulfide 1-6), the EPSA came to 154 A^2. Turning to `CC(=O)NCCCC[C@@H]1NC(=O)[C@H](Cc2c[nH]c3c(C)cccc23)NC(=O)[C@H]([C@@H](C)O)NC(=O)[C@H](CC(N)=O)NC(=O)[C@@H](NC(C)=O)C(C)(C)SSC(C)(C)[C@@H](C(=O)N[C@@H](Cc2ccc(OCCn3cc(COCCOCCOCCOCC[N+](C)(C)C)nn3)cc2)C(=O)N[C@@H](Cc2ccc3ccccc3c2)C(=O)NC2(C(=O)N[C@@H](CCCCNC(C)=O)C(=O)N[C@@H](CC(N)=O)C(=O)N[C@@H](Cc3cccnc3)C(=O)N(C)CC(N)=O)CCOCC2)NC1=O` [compound 252] (Ac-[Pen]NT[Trp(7-Me)]K(Ac)[Pen]Y(X30)[2Nal][Thp]K(Ac)N[3Pal][Sar]-NH2; disulfide 1-6), the EPSA amounted to 148 A^2.
